# Test results taken from patent US20250134870A1, “PATHWAY MODULATOR, PHARMACEUTICAL COMPOSITION HAVING SAME, USE THEREOF, AND THERAPEUTIC METHOD USING SAME” (Jiangsu Yahong Meditech Co., Ltd., priority 2021, published 2025).
# Columns and labels:
# [1] = Body weight and spleen weight in IMQ-induced psoriasis mice (Example 8); type: in vivo, Balb/c mice; conditions: 2 mg/kg topical QD × 7 days (G4)
# Description: 4) Spleen samples were collected and weighed (FIG. 23).
# Body weight was monitored daily throughout the study. Continuous use of IMQ cream could reduce the mean body weight of the solvent group. […] However, there was no statistically significant difference between the treatment and solvent groups (FIG. 21)
# [2] = tested on: imiquimod (IMQ)-induced psoriasis; assay: Imiquimod (IMQ)-induced psoriasis in mice: erythema, scales, thickness, total score, AUC (Example 8); type: in vivo, Balb/c mice; design: key to erythema score / scales score / thickness score: 0 = none, 1 = mild, 2 = moderate, 3 = obvious/severe; key to total score of erythema + scales + thickness: sum of three 0-3 scores (erythema + scales + thickening), 0-9; conditions: for erythema score / scales score: 2 mg/kg topical QD; for thickness score / total score of erythema + scales + thickness: positive control group
# Experimental: All mice were shaved with a pet shaver to get an area of 2×3 cm on the back one day before the start of the experiment.
# 65 animals were randomly divided into groups according to body weight, and the dosing regimen was as follows.
# Imiquimod (IMQ) cream: 62.5 mg of IMQ cream for each mouse in G2 to G7; Dexamethasone (DEX) ointment: 70 mg of ointment for each mouse in G4;
# Tofacitinib: Tofacitinib was dissolved in dimethyl sulfoxide to 5 mg/mL, and 50 μL was added to IMQ cream for daily treatment.
# Mice in Groups 2 to 7 received daily topical doses of 62.5 mg of IMQ cream on their shaved back from Day 0 to Day 7.
# Dosing of the test compounds and reference substance was carried out according to Table 29 for 7 consecutive days.
# To assess the severity of inflammation of skin on the back, the skin on the back was scored according to Table 30. Erythema, scales and thickening were scored independently on a scale of 0 to 3, 0, none; 1. mild; 2. moderate; 3. obvious/severe.
# The inhibition rate was calculated according to the following formula: Inhibition rate=[AUC (solvent)−AUC (treatment)]/AUC (solvent)×100%. Wherein, solvent referred to the solvent group corresponding to the route of administration.
# [3] = Body weight and weight change rate of EAU rats (Example 6); type: in vivo, Lewis rats; conditions: 0.4 mg/kg PO QD
# Description: Wherein, Day 0 referred to the day of immunization. The body weight of each rat was monitored twice a week after immunization.
# (§1) Dosing started from Day 0 accurately according to the animal body weight for a total of 16 days.
# [4] = tested on: IRBP R16-induced experimental autoimmune uveoretinitis (EAU); assay: Bovine IRBP R16-induced experimental autoimmune uveoretinitis (EAU): clinical score, AUC, incidence (Example 6); type: in vivo, Lewis rats; conditions: for Incidence rate (%): 0.4 mg/kg PO QD
# Experimental: On Day-1 (i.e., the day before immunization, hereinafter), 60 rats were randomly divided into 6 groups (n=10) based on body weight (see Table 18). On Day 0, rats in Groups 2 to 6 were anesthetized with isoflurane, followed by subcutaneous injection of a total of […] of emulsion resulting from IRBP R16 and CFA emulsified at a 1:1 v/v ratio, on both thighs (50 μL at each site) and tail head (100 μL), respectively.
# From Day 0 after immunization, the eyes of rats were checked daily with a flashlight by gently opening the upper and lower eyelids of the test rats, and the incidence of disease was recorded. Clinical symptoms were scored in a blind manner from the onset of disease to the end of the study according to the criteria listed in Table 17.
# as §1
# The results were expressed as “mean±standard error”. Graphpad Prism or SPSS was used for statistical analysis, and p<0.05 was considered statistically significant.
structure (smiles),measurement,setting,value
C[C@@H]1C[C@H]2[C@@H]3CCC4=CC(=O)C=C[C@]4(C)[C@@]3(F)[C@@H](O)C[C@]2(C)[C@@]1(O)C(=O)CO [Dexamethasone],body weight (weight loss),[1],weight loss was more dramatic
same,erythema score,[2]; Day 0,0
same,scales score,[2]; Day 0,0
same,thickness score,[2]; Day 0,0
same,total score of erythema + scales + thickness,[2]; Day 0,0
same,erythema score,[2]; Day 1,0
same,scales score,[2]; Day 1,0
same,thickness score,[2]; Day 1,0
same,total score of erythema + scales + thickness,[2]; Day 1,0
same,erythema score,[2]; Day 2,0
same,scales score,[2]; Day 2,0
same,thickness score,[2]; Day 2,0
same,total score of erythema + scales + thickness,[2]; Day 2,0
same,erythema score,[2]; Day 3,0.2
same,scales score,[2]; Day 3,0
same,thickness score,[2]; Day 3,0
same,total score of erythema + scales + thickness,[2]; Day 3,0
same,erythema score,[2]; Day 4,0.1
same,scales score,[2]; Day 4,0.2
same,thickness score,[2]; Day 4,0
same,total score of erythema + scales + thickness,[2]; Day 4,0.3
same,erythema score,[2]; Day 5,0.1
same,scales score,[2]; Day 5,0.2
same,thickness score,[2]; Day 5,0
same,total score of erythema + scales + thickness,[2]; Day 5,0.3
same,erythema score,[2]; Day 6,0
same,scales score,[2]; Day 6,0.2
same,thickness score,[2]; Day 6,0
same,total score of erythema + scales + thickness,[2]; Day 6,0.2
same,erythema score,[2]; Day 7,0
same,scales score,[2]; Day 7,0.1
same,thickness score,[2]; Day 7,0
same,total score of erythema + scales + thickness,[2]; Day 7,0.1
same,inhibition at 2 mg/kg,"[2]; Mus musculus, 168 h, 2 mg/kg topical QD × 7 days, vs corresponding solvent group, read-out: inhibition rate (AUC of total clinical score)",97%
same,Rat body weight,[3]; Day 2,174.65 g
same,Weight change rate (%),[3]; Day 2,−7.26%
same,Rat body weight,[3]; Day 6,166.65 g
same,Weight change rate (%),[3]; Day 6,−11.53%
same,Rat body weight,[3]; Day 9,164.05 g
same,Weight change rate (%),[3]; Day 9,−12.92%
same,Rat body weight,[3]; Day 13,162.10 g
same,Weight change rate (%),[3]; Day 13,−13.99%
same,Rat body weight,[3]; Day 16,161.29 g
same,Weight change rate (%),[3]; Day 16,−14.44%
same,Rat body weight,[3]; Day −1,188.46 g
same,Weight change rate (%),[3]; Day −1,0.00%
same,Area under the curve (AUC) of clinical score,[4]; 0.4 mg/kg PO QD × 16 days,7.68
same,Incidence rate (%),[4]; Day 0,0%
same,Incidence rate (%),[4]; Day 1,0%
same,Incidence rate (%),[4]; Day 2,0%
same,Incidence rate (%),[4]; Day 3,0%
same,Incidence rate (%),[4]; Day 4,0%
same,Incidence rate (%),[4]; Day 5,0%
same,Incidence rate (%),[4]; Day 6,0%
same,Incidence rate (%),[4]; Day 7,10%
same,Incidence rate (%),[4]; Day 8,20%
same,Incidence rate (%),[4]; Day 9,100%
same,Incidence rate (%),[4]; Day 10,100%
same,Incidence rate (%),[4]; Day 11,90%
same,Incidence rate (%),[4]; Day 12,90%
same,Incidence rate (%),[4]; Day 13,90%
same,Incidence rate (%),[4]; Day 14,90%
same,Incidence rate (%),[4]; Day 15,90%
same,Incidence rate (%),[4]; Day 16,90%
same,Incidence rate (%),[4]; Day −1,0%
same,inhibition at 0.4 mg/kg,"[4]; Rattus norvegicus, 384 h, 0.4 mg/kg PO QD × 16 days, vs model control, read-out: Inhibition rate of clinical score AUC",84.5%
